Laboratory results published in patent US6608080B1, “Morphan derivatives or salts thereof and medicinal compositions containing the same” (Hisamitsu Pharmaceutical Co., Ltd., priority 1999, dated 2003).
Counter-ions that a name gives are not always drawn.

Assays:
glycine receptors = assay: ionic current induced by glycine in a single neuron of the tractus solitarius nucleus, whole cell patch clamp; type: cell-based, guinea pig; parameters: key to Action (class symbol): ±: no action; +: potentiated; −: inhibited; conditions: for type of effect on glycine-induced ionic currents (in words): classification, 1 mM, example 7 at 300 μM; for Action (% of control): mean ± S.E.
Procedure: In order to confirm the excellent actions of the derivatives described in the present invention on modification of glycine receptors, the actions of various morphan derivatives against ionic current induced by glycine were evaluated in a single neuron of the tractus solitarius nucleus of a guinea pig.
The isolation of a single neuron was performed according to the method described in Kay et al. (J. Neurosci. Meth., 16, 227-238, 1986). Guinea pigs, Hartley strain, 7-10 days of age, were anesthetized, bled and decapitated and the medullae were rapidly extracted. Sliced sections, thickness 400 μm, were prepared by using a microslicer. The sliced segments obtained were incubated at 37° C. for 30 minutes, and regions of the tractus solitarius nucleus were punched out under a stereoscope. The punched out specimens were trypsinized in a 100% oxygen atmosphere at 37° C. for 30-60 minutes. The trypsinized tissues were dispersed mechanically to obtain the single neurons. Measurements of the ionic currents activated by glycine were performed using the whole cell mode of the patch clamp method. The ionic currents obtained were recorded using a pen-recorder. Administration of the test compounds was performed by the Y-tube method in which the external fluid peripheral to the cells could be changed to the test drug solution within 2 msec. (Neurosci. Lett., 103, 56-63, 1989). Concentrations of the test compounds were 1 mM, except that the highly lipophilic compound of example 7 was examined at 300 μM. All data were expressed by mean±S.E.
In Table 1, the effects of the morphan derivatives on ionic currents in single neurons from the tractus solitarius nucleus, induced by glycine at 30 μM are summarized.

GABA-induced currents = GABA-induced currents in a single neuron, whole cell patch clamp; type: cell-based, guinea pig; conditions: test compound 1 mM; GABA 30 μM (FIG. 1)
[1] = glycine 30 μM, test compound 1 mM
[2] = glycine 30 μM, test compound 300 μM

SMILES	type of effect on glycine-induced ionic currents (in words) (glycine receptors)	Action (class symbol) (glycine receptors; [1])	Action (% of control) (glycine receptors; [1]) [%]	other results
CN1CCC2CCCC1C2 (stereo not drawn) (as salt: hydrochloric acid salt) [Example 1, 2-Methyl-2-azabicyclo[3.3.1]nonane]				melting point: 147 to 152 °C
CN1CCC2CCCC1C2 (stereo not drawn) [Example 1, 2-Methyl-2-azabicyclo[3.3.1]nonane]	weak action	±	99.7 ± 1.5	
CCN1CCC2CCCC1C2 (stereo not drawn) [Example 2, 2-Ethyl-2-azabicyclo[3.3.1]nonane]	potentiation action	+	150.6 ± 14.2	rank of action on glycine-induced current (glycine receptors; glycine 30 μM): strongest enhancing action; action against GABA-induced currents (GABA-induced currents): no action
C=CCN1CCC2CCCC1C2 (stereo not drawn) [Example 3, 2-Allyl-2-azabicyclo[3.3.1]nonane]	potentiation action	+	138.9 ± 5.6	
CCC12CCCC(CCN1)C2 (stereo not drawn) [Example 4, 1-Ethyl-2-azabicyclo[3.3.1]nonane]	inhibitory action	−	70.9 ± 2.7	
CCCC12CCCC(CCN1)C2 (stereo not drawn) [Example 5, 1-Propyl-2-azabicyclo[3.3.1]nonane]	potentiation action	+	138.1 ± 7.0	
C1CC2CCN3CCCC3(C1)C2 (stereo not drawn) [Example 6, 5-Azatricyclo[6.3.1.0^1,5]dodecane]	potentiation action	+	152.1 ± 16.6	
C=CCC12CCCC(CCN1Cc1ccccc1O)C2 (stereo not drawn) [Example 7, 2-{[1-Allyl-(2-propenyl)-2-azabicyclo[3.3.1]nonane-2-yl]methyl}phenol]				concentration range of concentration-dependent inhibition of glycine-induced currents (glycine receptors; FIG. 2, glycine 30 μM): 10 to 300 µM; Action (class symbol) (glycine receptors; [2]): −; Action (% of control) (glycine receptors; [2]): 60.5 ± 2.7%
